Measured values as given in ChEMBL document CHEMBL1158284, “Biological activities of the nortropane alkaloid, calystegine B2, and analogs: structure-function relationships” (J Nat Prod, 1996).
Activity calls are given as the source filed them. The calls are words filed in the database; no cut-off is given here.

Tests used:
Prunus dulcis [1] = experiment: Inhibition of almond beta-glucosidase at 0.5 mg/mL
Aspergillus niger [2] = experiment: Inhibition of Aspergillus niger alpha-galactosidase 1.0 mg/mL
Sinorhizobium meliloti [3] = experiment: Antibacterial activity against Cac gene-deficient Rhizobium meliloti GMI13; assay type: functional, organism-based
Sinorhizobium meliloti [4] = experiment: Antibacterial activity against Cac gene-deficient Rhizobium meliloti RCR2011; assay type: functional, organism-based
[5] = test system: Agrobacterium tumefaciens; experiment: Antibacterial activity against Cac gene-deficient Agrobacterium tumefaciens C58C1; assay type: functional, organism-based
Agrobacterium rhizogenes = experiment: Antibacterial activity against Cac gene-deficient Agrobacterium rhizogenes HRI; assay type: functional, organism-based
Medicago sativa [6] = experiment: Allellopathic effect in Medicago sativa assessed as inhibition of seed germination up to 10 mM; assay type: functional, organism-based
Medicago sativa [7] = experiment: Allellopathic effect in Medicago sativa assessed as reduction in root elongation at 5 mM after 19 hrs; assay type: functional; set-up: scale not given: the % may be the effect or the level left
Medicago sativa [8] = experiment: Allellopathic effect in Medicago sativa assessed as reduction in root elongation at 10 mM after 19 hrs; assay type: functional; set-up: scale not given: the % may be the effect or the level left
Medicago sativa [9] = experiment: Allellopathic effect in Medicago sativa assessed as reduction in root elongation at 5 mM after 43 hrs; assay type: functional; set-up: scale not given: the % may be the effect or the level left
Medicago sativa [10] = experiment: Allellopathic effect in Medicago sativa assessed as reduction in root elongation at 10 mM after 43 hrs; assay type: functional; set-up: scale not given: the % may be the effect or the level left
Prunus dulcis [11] = experiment: (§1) Inhibition of almond beta-glucosidase
Aspergillus niger [12] = experiment: (§2) Inhibition of Aspergillus niger alpha-galactosidase
[13] = as §1; set-up: species or system Prunus dulcis
[14] = as §2
Sinorhizobium meliloti [15] = experiment: Induction of Cac gene-expressing Rhizobium meliloti 41 growth; assay type: functional, organism-based
Medicago sativa [16] = experiment: Allellopathic effect in Medicago sativa assessed as inhibition of seed germination at 5 mM; assay type: functional

SMILES	Activity (Prunus dulcis [1])	Activity (Aspergillus niger [2])	Activity (Sinorhizobium meliloti [3])	Activity (Sinorhizobium meliloti [4])	Activity [5]	Activity (Agrobacterium rhizogenes)	Activity (Medicago sativa [6])	Activity (Medicago sativa [7]) [%]	Activity (Medicago sativa [8]) [%]	Activity (Medicago sativa [9]) [%]	Activity (Medicago sativa [10]) [%]	Activity (Prunus dulcis [11])	Activity (Aspergillus niger [12])	Ki [13] [µM]	Ki [14] [µM]	Activity (Sinorhizobium meliloti [15])	inhibition at 5000 µM (Medicago sativa [16]) [%]
O[C@H]1[C@H](O)[C@H](O)[C@@]2(O)CC[C@@H]1N2	inactive	inactive	inactive	inactive	inactive	inactive	inactive	20	25	8	18	–	–	–	–	–	–
CN1[C@@H]2CC[C@@]1(O)[C@@H](O)[C@H](O)[C@H]2O	–	–	–	–	–	–	–	–	–	–	–	inactive	Active	–	–	–	–
O[C@@H]1[C@@H](O)[C@H](O)[C@]2(O)CC[C@H]1N2 [CALYSTEGINE B2]	–	–	inactive	inactive	inactive	inactive	–	37	46	12	40	–	–	4	7	Active	50
